Test results from article PMC4421829, “Design, Synthesis and Inhibitory Activity of Photoswitchable RET Kinase Inhibitors” (Scientific Reports, 2015).

Target: T1, RET (Homo sapiens, UniProt P07949)
T1 construct: RET tyrosine kinase domain (human recombinant RET expressed in Sf9 insect cells)
T1 sequence (P07949 724-1016 limits assumed): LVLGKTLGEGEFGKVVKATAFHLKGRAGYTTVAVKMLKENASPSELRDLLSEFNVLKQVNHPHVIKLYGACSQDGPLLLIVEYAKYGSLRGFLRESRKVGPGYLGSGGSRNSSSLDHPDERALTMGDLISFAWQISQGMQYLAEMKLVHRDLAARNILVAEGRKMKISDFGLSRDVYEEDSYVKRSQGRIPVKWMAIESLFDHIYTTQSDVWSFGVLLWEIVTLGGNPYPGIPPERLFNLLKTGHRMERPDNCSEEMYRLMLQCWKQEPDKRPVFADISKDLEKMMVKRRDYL
Assay: luminescent ATP-to-ADP conversion kinase assay (IGF1Rtide substrate, […] ATP), in the dark
Assay type: biochemical

IC50: 150 nM
SMILES: CC(C)n1nc(/N=N/c2ccccc2)c2c(N)ncnc21 [compound 4, E-4]
